In patent US11066419B2, “1H-pyrrole-2,5-dione compounds and methods of using same” (Frequency Therapeutics, Inc., priority 2016, dated 2021):

How the values were obtained:
[1] = molecular target: recombinant human GSK3α (Homo sapiens, UniProt P49840); assay: In vitro enzymatic assay for inhibition of GSK3α (Kinase-Glo Max luminescence); assay type: biochemical; conditions: 10 uM ATP, 0.1 mg/ml GSKtide, 30° C. 40 minutes, read-out: Potency Alpha
Experimental: (§1) Enzymatic activities using recombinant human GSK3 using an in vitro enzymatic assay for inhibition GSK3α and GSK3β.
(§2) The assay was performed using Kinase-Glo Max luminescence kinase assay kit (Promega). It measures kinase activity by quantitating the amount of ATP remaining in solution following a kinase reaction. The luminescent signal from the assay is correlated with the amount of ATP present and is inversely correlated with the amount of kinase activity. The compounds were diluted in 10% DMSO and 5 μl of the dilution was added to a 50 μl reaction so that the final concentration of DMSO is 1% in all of reactions. The enzymatic reactions were conducted at 30° C. for 40 minutes. The 50 μl reaction mixture contains 40 mM Tris, pH 7.4, 10 mM MgCl2, 0.1 mg/ml BSA, 2 mM DTT, 0.1 mg/ml GSKtide substrate, 10 uM ATP and GSK3. After the enzymatic reaction, 50 μl of Kinase-Glo Max Luminescence kinase assay solution (Promega) was added to each reaction and incubate the plate for 15 minutes at room temperature. Luminescence signal was measured using a BioTek Synergy 2 microplate reader.
(§3) Kinase activity assays were performed in duplicate at each concentration. The luminescence data were analyzed using the computer software, Graphpad Prism. The difference between luminescence intensities in the absence of Kinase (Lut) and in the presence of Kinase (Luc) was defined as 100% activity (Lut−Luc). Using luminescence signal (Lu) in the presence of the compound, % activity was calculated as: % activity={(Lut−Lu)/(Lut−Luc)}×100%, where Lu=the luminescence intensity in the presence of the compound (all percent activities below zero were shown zero in the table).
(§4) The values of % activity versus a series of compound concentrations were then plotted using non-linear regression analysis of Sigmoidal dose-response curve generated with the equation Y=B+(T−B)/1+10((Log EC50−X)×Hill Slope), where Y=percent activity, B=minimum percent activity, T=maximum percent activity, X=logarithm of compound and Hill Slope=slope factor or Hill coefficient. The IC50 value was determined by the concentration causing a half-maximal percent activity.

[2] = molecular target: recombinant human GSK3β (Homo sapiens, UniProt P49841); assay: In vitro enzymatic assay for inhibition of GSK3β (Kinase-Glo Max luminescence); assay type: biochemical; conditions: 10 uM ATP, 0.1 mg/ml GSKtide, 30° C. 40 minutes, read-out: Potency Beta
Sequence of recombinant human GSK3β (P49841 whole entry): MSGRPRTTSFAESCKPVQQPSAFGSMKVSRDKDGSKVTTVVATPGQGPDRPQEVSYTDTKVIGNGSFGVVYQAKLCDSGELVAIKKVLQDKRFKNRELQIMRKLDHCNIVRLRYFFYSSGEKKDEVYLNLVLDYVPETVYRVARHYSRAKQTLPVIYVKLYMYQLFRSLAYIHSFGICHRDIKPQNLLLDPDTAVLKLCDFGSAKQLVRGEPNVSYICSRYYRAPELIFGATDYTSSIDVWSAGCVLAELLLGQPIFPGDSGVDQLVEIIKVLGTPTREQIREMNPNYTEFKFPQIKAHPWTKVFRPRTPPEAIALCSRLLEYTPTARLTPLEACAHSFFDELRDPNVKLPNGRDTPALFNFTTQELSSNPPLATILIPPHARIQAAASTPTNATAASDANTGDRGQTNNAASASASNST
Experimental: as §1, §2, §3, §4

[3] = test system: Lgr5-positive cells; assay: Expansion of Lgr5-positive cells (cochlear stem cell expansion, 3D Matrigel culture, flow cytometry for Lgr5-GFP); assay type: cell-based, mouse; conditions: for EC50: Mus musculus, 240 h, Lgr5-positive cell expansion, cochlear cells of neonatal Lgr5-EGFP-IRES-Cre-ER mice, 10 days in culture, read-out: Potency; for % of Cells: percentage of Lgr5-GFP-positive cells after 10 days (D10) in culture, flow cytometer
Experimental: Lgr5-EGFP-IRES-Cre-ER mice (Barker et al., 2007) (http://jaxmice.jax.org/strain/008875.html) are used to analyze the effects of small molecules on cochlear stem cell expansion.
Isolation of stem cells from the inner ear: All animal studies are conducted under an approved institutional protocol according to National Institutes of Health guidelines. For experiments with neonatal mice (postnatal days 1-3), the cochleae are dissected in HBSS and the organ of Corti are separated from the stria vascularis and the modiolus. The organs of Corti are then treated with Cell Recovery Solution (Corning) for 1 h to separate cochlear epithelium from the underlying mesenchyme. Epithelia are then collected and treated with TrypLE (Life Technologies) for 15-20 minutes at 37° C. Single cells obtained by mechanical trituration are filtered (40 μm) and suspended in Matrigel (Corning) for 3D culture.
Cells are cultured in a 1:1 mixture of DMEM and F12, supplemented with Glutamax (GIBCO), N2, B27 (Invitrogen), EGF (50 ng/ml; Chemicon), bFGF (50 ng/ml; Chemicon), IGF1 (50 ng/ml; Chemicon) and the composition provided herein. Media are changed every other day.
Lgr5-positive cells are quantified after 10 days (D10) in culture in multiple conditions. Cell colonies are dissociated into single cells using TrypLE (Gibco). The cells are then stained with propidium iodide (PI) and are analyzed using a flow cytometer for Lgr5-GFP expression. The number of GFP-positive cells and the percentage of GFP-positive cells are quantified.

Sequence of recombinant human GSK3α (P49840 whole entry): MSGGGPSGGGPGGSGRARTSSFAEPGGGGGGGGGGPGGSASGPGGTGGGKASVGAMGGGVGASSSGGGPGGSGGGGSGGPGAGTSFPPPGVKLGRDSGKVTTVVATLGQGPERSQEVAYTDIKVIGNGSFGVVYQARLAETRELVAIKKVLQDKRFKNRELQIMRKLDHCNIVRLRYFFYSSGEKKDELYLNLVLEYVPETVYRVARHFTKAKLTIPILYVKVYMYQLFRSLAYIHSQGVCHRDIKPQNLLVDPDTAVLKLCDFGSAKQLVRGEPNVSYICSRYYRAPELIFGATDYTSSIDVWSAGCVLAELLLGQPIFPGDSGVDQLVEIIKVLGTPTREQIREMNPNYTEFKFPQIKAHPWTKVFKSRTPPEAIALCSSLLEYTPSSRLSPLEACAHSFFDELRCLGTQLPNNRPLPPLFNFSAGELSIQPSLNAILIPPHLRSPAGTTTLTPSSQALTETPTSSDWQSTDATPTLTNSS

| SMILES | IC50 [1] | IC50 [2] | EC50 [3] | % of Cells [3] |
| --- | --- | --- | --- | --- |
| N#Cc1cc2c3c(c1)c(C1=C(c4cnc5ccccn45)C(=O)NC1=O)cn3CCN(C(=O)N1CCC(F)(F)CC1)C2 [Compound I-16] | 1 to 10 nM | 1 to 10 nM | 100 to 1000 nM | +++ (“+++” indicates greater than about 11%) |
| N#Cc1cc2c3c(c1)c(C1=C(c4cnc5ccccn45)C(=O)NC1=O)cn3CCN(C(=O)N1CC3CCC(C1)O3)C2 [Compound I-14] | 1 to 10 nM | 1 to 10 nM | > 1000 nM | + (“+” indicates about 0-5%) |
| O=C1NC(=O)C(c2cn3c4c(cc(F)cc24)CN(C(=O)N2CCCCC2)CC3)=C1c1noc2ccccc12 [Compound I-9] | 10 to 100 nM | 1 to 10 nM | > 1000 nM | +++ (“+++” indicates greater than about 11%) |
| O=C1NC(=O)C(c2cnc3ccccn23)=C1c1cn2c3c(cc(C(F)(F)F)cc13)CN(C(=O)N1CCC(CO)CC1)CC2 [Compound I-20] | 1 to 10 nM | 1 to 10 nM | > 1000 nM | +++ (“+++” indicates greater than about 11%) |
| O=C1NC(=O)C(c2cnc3ccccn23)=C1c1cn2c3c(cc(F)cc13)CN(C(=O)N1CC3CCC(C1)O3)CC2 [Compound I-8] | 1 to 10 nM | 1 to 10 nM | 1 to 100 nM | +++ (“+++” indicates greater than about 11%) |
| CC(=O)Nc1cc2c3c(c1)c(C1=C(c4cnc5ccccn45)C(=O)NC1=O)cn3CCN(C(=O)N1CCCCC1)C2 [Compound I-10] | 1 to 10 nM | 1 to 10 nM | > 1000 nM | + (“+” indicates about 0-5%) |

More lines, main results first:

| IC50 [1] | IC50 [2] | EC50 [3] | SMILES | % of Cells [3] |
| --- | --- | --- | --- | --- |
| 1 to 10 nM | 1 to 10 nM | > 1000 nM | CNCC1CCN(C(=O)N2CCn3cc(C4=C(c5cnc6ccccn56)C(=O)NC4=O)c4cc(F)cc(c43)C2)CC1 [Compound I-32] | +++ (“+++” indicates greater than about 11%) |
| 1 to 10 nM | 1 to 10 nM | 100 to 1000 nM | O=C1NC(=O)C(c2cnc3ccccn23)=C1c1cn2c3c(cc(C(F)(F)F)cc13)CN(C(=O)N1CC(F)(F)OC(F)(F)C1)CC2 [Compound I-43] | +++ (“+++” indicates greater than about 11%) |
| 1 to 10 nM | 1 to 10 nM | > 1000 nM | CN1CC2CC1CN2C(=O)N1CCn2cc(C3=C(c4cnc5ccccn45)C(=O)NC3=O)c3cc(F)cc(c32)C1 (stereo not drawn) [Compound I-40] | + (“+” indicates about 0-5%) |
| 1 to 10 nM | 1 to 10 nM | > 1000 nM | CN(CC1CCNCC1)C(=O)N1CCn2cc(C3=C(c4cnc5ccccn45)C(=O)NC3=O)c3cc(F)cc(c32)C1 [Compound I-38] | + (“+” indicates about 0-5%) |
| 1 to 10 nM | 1 to 10 nM | 1 to 100 nM | O=C1NC(=O)C(c2cnc3ccccn23)=C1c1cn2c3c(cc(F)cc13)CN(C(=O)N1CCOCC(F)(F)C1)CC2 [Compound I-27] | +++ (“+++” indicates greater than about 11%) |
| 1 to 10 nM | 1 to 10 nM | > 1000 nM | CN1CCC2(CCN(C(=O)N3CCn4cc(C5=C(c6cnc7ccccn67)C(=O)NC5=O)c5cc(F)cc(c54)C3)CC2)C1 [Compound I-41] | +++ (“+++” indicates greater than about 11%) |
